Paper PMC6796659, “Topoisomerase IB poisons induce histone H2A phosphorylation as a response to DNA damage in Leishmania infantum” (International Journal for Parasitology: Drugs and Drug …, 2019)

Tests used:
[1] = Cytotoxicity on uninfected mouse splenocytes (Alamar Blue); type: cell-based; conditions: BALB/c, freshly isolated uninfected mouse splenocytes, non-infected mouse splenocytes, read-out: CC50 (μM) Murine Splenocytes
Procedure: Finally, the cytotoxicity of the compounds was assessed on freshly-isolated mouse splenocytes, which were obtained from uninfected BALB/c mice according to the protocol previously described. Viability of uninfected splenocytes was used to determine the cytotoxic concentration 50 (CC50) by means of the Alamar Blue staining method, according to manufacturer's recommendations (Invitrogen). Selectivity index (SI) for each compound was calculated as the ratio between the CC50 value obtained for splenic cells and the EC50 value for amastigotes.

[2] = tested on: iRFP L. infantum promastigotes; test: Antileishmanial activity on free-living iRFP L. infantum promastigotes (infrared fluorescence viability); type: cell-based; conditions: Leishmania infantum, 72 h, 26 °C
Procedure: Histone phosphorylation assays were performed in promastigotes of L. infantum BCN 150 strain, whereas the antiparasitic activity of the compounds was assessed on the transgenic strain that constitutively expresses the irfp gene encoding the infrared iRFP protein (iRFP L. infantum strain) ([Calvo-Álvarez et al., 2015]), which is derived from L. infantum BCN 150. Both strains were grown at 26 °C in M-199 medium (Gibco) supplemented with 25 mM HEPES pH 7.2, 0.1 mM adenine, 0.0005% (w/v) hemin, 2 μg/mL biopterin, 0.0001% (w/v) biotin, 10% (v/v) heat-inactivated fetal bovine serum (FBS) and an antibiotic cocktail comprising 50 U/mL penicillin and 50 μg/mL streptomycin.
The antileishmanial activity of the compounds was tested both in promastigotes and in amastigotes infecting mouse splenocytes. For this purpose, 384-well optical bottom black plates (Thermo Scientific) were seeded either with free-living iRFP L. infantum promastigotes or with splenic explants infected with iRFP L. infantum amastigotes, which were incubated at 26 °C or 37 °C, respectively. The viability of both iRFP L. infantum stages was measured by recording the fluorescence emitted by viable cells at 708 nm in an Odyssey (Li-Cor) infrared imaging system after a 72-h period of incubation with different concentrations of the compounds. Dose-response curves were obtained by plotting the infrared fluorescence emission of viable parasites vs. different concentrations of testing compounds and were fitted by nonlinear analysis using the Sigma-Plot 10.0 statistical package. The reduction of infrared emission with respect to the negative control was used to determine the 50% effective concentration to kill the parasites (EC50). Both controls and treated groups were tested with DMSO (drug vehicle) concentrations below 0.1%. All compounds and controls were assayed in triplicate.

[3] = tested on: L. infantum promastigotes; test: Cell cycle analysis by flow cytometry (propidium iodide); type: cell-based, Leishmania infantum; conditions: 1 μM single dose, 0, 8, 24, 48 h
Procedure: One million promastigotes untreated or treated with 1 μM of different indenoisoquinolines were harvested by centrifugation after 0, 8, 24 and 48 h exposure. Promastigotes were washed twice with PBS and fixed by 1 h incubation with 70% methanol at 4 °C. After incubation, cells were centrifuged, washed again with PBS and resuspended in 0.5 mL of citrate buffer (45 mM MgCl2, 20 mM MOPS, 30 mM sodium citrate, 0.1% Triton X-100, pH = 7). Finally, samples with RNAase (50 μg/mL) and propidium iodide ([…]) were incubated at 37 °C during 30 min and analyzed at 589 nm by flow cytometry (Cyan ADP Dako).

[4] = tested on: Leishmania topoisomerase IB (LTopIB); test: Relaxation of supercoiled pSK DNA by recombinant LTopIB; type: biochemical; conditions: Table 1
Procedure: (§1) Expression and purification of LTopIB and hTopIB were carried out according to a previously standardized protocol ([Villa et al., 2003]). The effect of indenoisoquinolines (compounds 1 to 20) on recombinant LTopIB and hTopIB was determined by measuring the relaxation of negatively supercoiled pBluescript-SK DNA plasmid (pSK). Briefly, in a total volume of 20 μL, 100 U of recombinant TopIB were incubated with 0.5 μg of pSK DNA in 10 mM Tris-HCl buffer (pH 7.5), 5 mM MgCl2, 5 mM dithiothreitol (DTT), 0.1 mM EDTA, […] bovine serum albumin, and 150 mM KCl. Different concentrations of indenoisoquinolines were also added. Following a 4-min incubation period at 25 °C, reactions were stopped with 1% (w/v) SDS, and incubated for one extra hour at 37 °C in the presence of 1 mg/mL proteinase K. Subsequently, samples were extracted with 1 vol phenol-chloroform mixture and were loaded on a 1% agarose gel containing 0.1 μg/mL ethidium bromide. The gel was run for 16 h at 4 V/cm, and the images were acquired using a G-Box system (Syngene, United Kingdom).

[5] = target: T1, human Top IB (hTopIB) (Homo sapiens, UniProt P11387); test: Relaxation of supercoiled pSK DNA by recombinant hTopIB; type: biochemical; conditions: Table 1
T1 construct: made in house
T1 sequence (P11387 1-765): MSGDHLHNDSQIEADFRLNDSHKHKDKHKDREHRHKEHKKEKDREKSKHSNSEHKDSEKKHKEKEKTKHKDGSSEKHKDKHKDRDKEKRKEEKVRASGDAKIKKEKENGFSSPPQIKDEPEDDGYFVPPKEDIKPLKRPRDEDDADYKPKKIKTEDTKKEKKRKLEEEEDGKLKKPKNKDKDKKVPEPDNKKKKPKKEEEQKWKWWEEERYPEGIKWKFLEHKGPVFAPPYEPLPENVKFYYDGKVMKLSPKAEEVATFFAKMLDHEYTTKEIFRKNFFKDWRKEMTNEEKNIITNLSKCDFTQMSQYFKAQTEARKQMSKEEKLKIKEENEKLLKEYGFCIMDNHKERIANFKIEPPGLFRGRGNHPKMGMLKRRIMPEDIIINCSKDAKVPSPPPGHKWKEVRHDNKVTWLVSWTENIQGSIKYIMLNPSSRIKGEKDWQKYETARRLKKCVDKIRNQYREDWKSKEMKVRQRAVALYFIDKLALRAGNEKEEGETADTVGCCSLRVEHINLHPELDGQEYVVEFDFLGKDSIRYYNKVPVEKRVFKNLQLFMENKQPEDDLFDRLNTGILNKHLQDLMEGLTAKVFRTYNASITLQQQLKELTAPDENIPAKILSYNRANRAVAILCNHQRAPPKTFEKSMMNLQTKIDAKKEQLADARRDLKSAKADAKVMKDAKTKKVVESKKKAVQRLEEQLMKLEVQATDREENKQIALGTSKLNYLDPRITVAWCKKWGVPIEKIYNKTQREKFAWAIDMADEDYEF
Procedure: as §1

For NCCCn1c2c(c3ccccc3c1=O)C(=O)c1ccccc1-2 [Compound 2], the CC50 [1] was 0.59 ± 0.28 µM, the EC50 [2] was 0.34 ± 0.03 µM and the “effect on cell cycle of promastigotes” value [3] was “did not arrest the cell cycle”. The LTopIB inhibition [4] was “+++ (inhibition at 1 μM)” and the hTopIB inhibition [5] was “++ (inhibition at 10 μM)”.
